Test results as given in patent publication US9091678B2, “Method for identifying compounds useful for treating and/or preventing disease-associated bone loss” (priority 2008, dated 2015).

Experiments:
[1] = tested on: RAW264.7 cells differentiated in osteoclasts; assay: Toxicity test on differentiated osteoclasts (TRAP staining, morphology); format: cell-based; parameters: key: compounds which induce the death of all the osteoclasts after 72 hours (−); compounds which induce morphological anomalies and/or death of part of the osteoclasts (+/−); +: Compounds which do not induce visible modifications of the osteoclasts; conditions: at the concentration given in Table 2, vs 0.5% DMSO control
Protocol: The compounds were tested for their toxicity on differentiated osteoclasts at the concentration determined above. RAW264.7 cells differentiated in osteoclasts were allowed to grow for 72 hours in presence of the tested compounds. […] This osteoclasts specific labeling permits to visualize the cell morphology. The cell morphology was then compared to control cells which were allowed to grow in presence of 0.5% DMSO.

RAW264.7 cells = assay: Toxicity test on osteoclast precursors; format: cell-based; conditions: RAW264.7 cells grown 72 hours with 10 to 100 μM of compound, vs 0.5% DMSO control
Protocol: The selected compounds were then tested for their toxicity on osteoclast precursors. […] RAW264.7 cells used as osteoclasts […] were allowed to grow for 72 hours with 10 to 100 μM of compound. The growth of the cells was compared to control cells which were grown with 0.5% DMSO.

Structure (SMILES) | Survival at 72 hours [1] | Concentration μM (optimal concentration which does not affect the growth of the cells) (RAW264.7 cells) [µM]
CCOc1ccc(NC(=O)CSc2nnc(-c3ccc(OC)cc3)o2)cc1 [Compound 3, N-(4-ethoxyphenyl)-2-{[5-(4-methoxyphenyl)-1,3,4-oxadiazol-2-yl]thio}acetamide] | +/− | 
O=C(O)CCC(=O)N1N=C(c2ccc([N+](=O)[O-])cc2)CC1c1ccc(Br)cc1 (stereo not drawn) [Compound 4, 4-[5-(4-bromophenyl)-3-(4-nitrophenyl)-4,5-dihydro-1H-pyrazol-1-yl]-4-oxobutanoic acid] | − | 
Cc1ccc(N(C(=O)C(Cl)(Cl)Cl)C2C=CS(=O)(=O)C2)cc1 (stereo not drawn) [Compound 5, 2,2,2-trichloro-N-(1,1-dioxido-2,3-dihydro-3-thienyl)-N-(4-methylphenyl)acetamide] | − | 
Cc1ccc(/C=C/C(=O)Nc2ccccc2Br)o1 [Compound 6, N-(2-bromophenyl)-3-(5-methyl-2-furyl)acrylamide] | + | 
O=C(COc1cccc2ccccc12)Nc1ccc2c(c1)OCCO2 [Compound 10, N-(2,3-dihydro-1,4-benzodioxin-6-yl)-2-(1-naphthyloxy)acetamide] | + | 
C=C1c2ccc(C)cc2NC(=O)N1c1cccc(Cl)c1 [Compound 11, 3-(3-chlorophenyl)-7-methyl-4-methylene-3,4-dihydro-2(1H)-quinazolinone] | − | 
O=C(COc1ccccc1Cl)Nc1cc(C(F)(F)F)ccc1Cl [Compound 12, 2-(2-chlorophenoxy)-N-[2-chloro-5-(trifluoromethyl)phenyl]acetamide] | + | 
CCC(=O)Nc1ccc(N2CCN(C(C)=O)CC2)cc1 [Compound 13, N-[4-(4-acetyl-1-piperazinyl)phenyl]propanamide] | + | 
Cc1cc(=O)n2ccc(CN(C)C)c(O)c2n1 [Compound 14, 8-[(dimethylamino)methyl]-9-hydroxy-2-methyl-4H-pyrido[1,2-a]pyrimidin-4-one] | + | 
O=C1/C(=C\c2ccc([N+](=O)[O-])cc2)SC(=S)N1c1cccc(C(F)(F)F)c1 [Compound 16, 5-(4-nitrobenzylidene)-2-thioxo-3-[3-(trifluoromethyl)phenyl]-1,3-thiazolidin-4-one] | +/− | 
CC1=NN(c2cccc(C(=O)O)c2)C(=O)/C1=C\c1cccc(Br)c1 [Compound 18, 3-[4-(3-bromobenzylidene)-3-methyl-5-oxo-4,5-dihydro-1H-pyrazol-1-yl]benzoic acid] | − | 
O=C(Nc1cccc2nsnc12)c1ccc(Br)o1 [Compound 20, N-2,1,3-benzothiadiazol-4-yl-5-bromo-2-furamide] | − | 
O=C(Nc1cc(Cl)cc(Cl)c1)S(=O)(=O)c1ccccc1 [Compound 21, (3,5-dichlorophenyl)[(phenylsulfonyl)carbonyl]amine] | +/− | 
CC(=O)N1CCN(c2ccc([N+](=O)[O-])cc2Cl)CC1C (stereo not drawn) [Compound 22, 1-acetyl-4-(2-chloro-4-nitrophenyl)-2-methylpiperazine] | − | 
COc1cccc(/C=C2/C=C(c3ccc(C)cc3)OC2=O)c1 [Compound 23, 3-(3-methoxybenzylidene)-5-(4-methylphenyl)-2(3H)-furanone] | − | 
O=C(O)/C=C/c1ccc(-c2ccc(Cl)c(Cl)c2)o1 [Compound 24, 3-[5-(3,4-dichlorophenyl)-2-furyl]acrylic acid] | − | 
CCOC(=O)C1=C(C)N=c2sc(=Cc3cc(Cl)c(OCC(=O)O)c(OC)c3)c(=O)n2C1c1ccccc1Cl (stereo not drawn) [Compound 25, (2-chloro-4-{[5-(2-chlorophenyl)-6-(ethoxycarbonyl)-7-methyl-3-oxo-5H-[1,3]thiazolo[3,2-a]pyrimidin-2(3H)-ylidene]methyl}-6-methoxyphenoxy)acetic acid] | − | 
O=S(=O)(c1cccc2nsnc12)N1CCN(C(c2ccccc2)c2ccccc2)CC1 [Compound 26, 4-{[4-(diphenylmethyl)-1-piperazinyl]sulfonyl}-2,1,3-benzothiadiazole] | − | 
CCOc1ccc(C(=O)Nc2ccc(N3CCN(C(C)=O)CC3)cc2)cc1[N+](=O)[O-] [Compound 27, N-[4-(4-acetyl-1-piperazinyl)phenyl]-4-ethoxy-3-nitrobenzamide] | + | 

Structure (SMILES) | Survival at 72 hours [1] | Concentration μM (optimal concentration which does not affect the growth of the cells) (RAW264.7 cells) [µM]
CC(C)(C)c1cc(C2Nc3cccc4cccc(c34)N2)cc(C(C)(C)C)c1O [Compound 30, 2,6-di-tert-butyl-4-(2,3-dihydro-1H-perimidin-2-yl)phenol] | − | 
O=C1c2ccccc2NC(c2c(Cl)cccc2Cl)N1Cc1ccccc1 (stereo not drawn) [Compound 33, 3-benzyl-2-(2,6-dichlorophenyl)-2,3-dihydro-4(1H)-quinazolinone] | − | 
Oc1ccc(-c2nc(-c3ccccc3)c(-c3cccs3)[nH]2)cc1O [Compound 34, 4-[4-phenyl-5-(2-thienyl)-1H-imidazol-2-yl]-1,2-benzenediol] | − | 
O=Cc1cn(Cc2ccc(Cl)c(Cl)c2)c2ccccc12 [Compound 35, 1-(3,4-dichlorobenzyl)-1H-indole-3-carbaldehyde] | − | 50
COc1ccc(NC(=O)c2ccc(N(C)S(=O)(=O)c3ccccc3)cc2)cc1OC [Compound 37, N-(3,4-dimethoxyphenyl)-4-[methyl(phenylsulfonyl)amino]benzamide] | − | 
O=C(/C=C/c1ccc(F)cc1)Nc1ccccc1Cl [Compound 40, N-(2-chlorophenyl)-3-(4-fluorophenyl)acrylamide] | + | 
Oc1ccccc1C(=S)N1N=C(c2ccccc2)CC1(O)C(F)(F)F (stereo not drawn) [Compound 42, 1-[(2-hydroxyphenyl)carbonothioyl]-3-phenyl-5-(trifluoromethyl)-4,5-dihydro-1H-pyrazol-5-ol] | − | 
COc1cc([N+](=O)[O-])ccc1N=S(C)C [Compound 43, 1-[(dimethyl-lambda~4~-sulfanylidene)amino]-2-methoxy-4-nitrobenzene] | + | 
COCCOC(=O)c1ccc(NC(=O)c2ccc(C(C)(C)C)cc2)cc1 [Compound 44, 2-methoxyethyl 4-[(4-tert-butylbenzoyl)amino]benzoate] | − | 
COc1ccccc1NC(=O)/C(=C\c1cccs1)NC(=O)c1ccc(C(C)(C)C)cc1 [Compound 46, 4-tert-butyl-N-[1-{[(2-methoxyphenyl)amino]carbonyl}-2-(2-thienyl)vinyl]benzamide] | + | 
Cc1ccc(/C=C/C(=O)Nc2cccc(Cl)c2Cl)o1 [Compound 47, N-(2,3-dichlorophenyl)-3-(5-methyl-2-furyl)acrylamide] | − | 
O=C1NC(=O)N(c2ccccc2Cl)C(=O)C1=Cc1ccccc1 [Compound 48, 5-benzylidene-1-(2-chlorophenyl)-2,4,6(1H,3H,5H)-pyrimidinetrione] | + | 100
O=C(Nc1ccccc1)Nc1nnc(C23CC4CC(CC(C4)C2)C3)s1 [Compound 49, N-[5-(1-adamantyl)-1,3,4-thiadiazol-2-yl]-N′-phenylurea] | +/− | 
CCc1nc(-c2ccccc2)nc(C)c1C [Compound 50, 4-ethyl-5,6-dimethyl-2-phenylpyrimidine] | + | 
COc1ccc(NC(=O)c2ccccc2Cl)cc1Cl [Compound 51, 2-chloro-N-(3-chloro-4-methoxyphenyl)benzamide] | + | 
Cc1ccc(OCc2nnc(NC(=O)Nc3ccc(Cl)c(Cl)c3)s2)cc1 [Compound 53, N-(3,4-dichlorophenyl)-N′-{5-[(4-methylphenoxy)methyl]-1,3,4-thiadiazol-2-yl}urea] | +/− | 
O=C(/C=C/c1cccc(C(F)(F)F)c1)Nc1ccc(F)cc1 [Compound 54, N-(4-fluorophenyl)-3-[3-(trifluoromethyl)phenyl]acrylamide] | − | 
O=C1c2ccccc2NC(c2ccccc2O)N1Cc1ccco1 (stereo not drawn) [Compound 55, 3-(2-furylmethyl)-2-(2-hydroxyphenyl)-2,3-dihydro-4(1H)-quinazolinone] | − | 
